Measurements reported in patent US20090054515A1, “SKIN-WHITENING COSMETIC” (POLA CHEMICAL INDUSTRIES INC., priority 2006, published 2009).

Columns and labels:
Trp-1 = assay: Expression of Trp-1 by Western blotting; format: cell-based; conditions: 5 μM, 72-hour culture, human normal melanocytes
Protocol: (§1) A cell suspension of human normal melanocytes (from Kurabo Industries Ltd.) in a medium for culturing melanocytes (Medium 254, from Kurabo Industries Ltd.) was prepared at 7×10^4 cells/mL and inoculated into φ10-cm culture petri dishes in an amount of 10 mL per dish, and the cells were cultured in a CO2 incubator (37° C., 5% CO2). The next day, the medium was removed, and a medium for culturing melanocytes containing 2 μM or 5 μM Compound (1) or a medium for culturing melanocytes (control) was added in an amount of 10 mL per dish, followed by culture in a CO2 incubator for 72 hours. After 72-hour culture, the medium was removed, and the cells were washed with phosphate buffered saline (PBS) and collected using a cell scraper. A protein extraction solution (0.1% NP-40, 0.01% SDS, 10 mM sodium phosphate buffer (pH 6.8), protease inhibitor) was added to the cell pellets to suspend the cells, and the suspension was shaken at 4° C. for 1 hour. The resultant was centrifuged at 4° C. and 15,000 rpm for 10 minutes, and the supernatant was collected and used as a crude protein extract. […]
(§2) The membrane was washed with TPBS, and proteins were detected using an ECL Plus western blotting detection system. […]

tyrosinase = assay: Expression of tyrosinase by Western blotting; format: cell-based; conditions: 5 μM, 72-hour culture, human normal melanocytes
Protocol: as §1, §2

[1] = target: T1, tyrosinase extracted from normal human melanocytes (Homo sapiens, UniProt P14679); assay: Normal human melanocytes tyrosinase activity inhibition test (dopa-oxidizing activity); format: biochemical; conditions: for Dopa-oxidizing activity: control defined as 100%, 10 minutes at 37° C.; for action on the activity of tyrosinase: 1 to 100 μM
T1 construct: to thereby produce a protein solution, which was used as a crude tyrosinase protein solution; host or cells: human normal melanocytes; extract made with a Subcellular Proteome Extraction Kit (Calbiochem)
T1 sequence (P14679 19-529): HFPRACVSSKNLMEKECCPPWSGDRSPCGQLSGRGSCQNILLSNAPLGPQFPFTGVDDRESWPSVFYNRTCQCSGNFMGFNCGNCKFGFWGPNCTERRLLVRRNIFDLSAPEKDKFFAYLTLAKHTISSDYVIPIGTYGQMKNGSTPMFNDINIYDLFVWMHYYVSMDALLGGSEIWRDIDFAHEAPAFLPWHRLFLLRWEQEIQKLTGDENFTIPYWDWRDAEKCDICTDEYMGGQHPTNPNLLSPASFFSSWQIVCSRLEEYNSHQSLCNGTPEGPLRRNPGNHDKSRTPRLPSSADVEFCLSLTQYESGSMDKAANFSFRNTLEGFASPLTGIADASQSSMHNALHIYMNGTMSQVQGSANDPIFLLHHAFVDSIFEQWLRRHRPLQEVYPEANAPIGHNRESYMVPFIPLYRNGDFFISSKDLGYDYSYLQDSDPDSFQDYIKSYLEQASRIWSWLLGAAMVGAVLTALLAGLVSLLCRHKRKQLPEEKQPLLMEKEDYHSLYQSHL
Protocol: Human normal melanocytes (from Kurabo Industries Ltd.), cultured in a medium for culturing melanocytes (Medium 254, from Kurabo Industries Ltd.), were collected using a cell scraper, and extraction was performed for the cells using PreteoExtract™ Subcellular Proteome Extraction Kit (Calbiochem), to thereby produce a protein solution, which was used as a crude tyrosinase protein solution. The dopa-oxidizing activity of the tyrosinase protein solution was measured to evaluate the tyrosinase activity-inhibiting action of Compound (1).
A 0.1% dopa solution, serving as a substrate, was prepared by dissolving L-β-(3,4-dihydroxyphenyl)alanine (L-DOPA) in 10 mM sodium phosphate buffer (pH 6.8) at a concentration of 0.1 (w/v) %. A crude tyrosinase protein solution, prepared to 1 to 5 μg/80 μL, was fed into a 96-well plate in an amount of 80 μL per well, and solutions of 10 μM, 100 μM, and 1,000 μM Compound (1) in DMSO were separately added to three wells each in an amount of 20 μL per well. Meanwhile, as positive controls, solutions of 10 μM, 100 μM, and 1,000 μM phenylthiourea, known as a tyrosinase activity inhibitor, in DMSO were separately added in the same way as above to different three wells each in an amount of 20 μL per well. In addition, as a control, DMSO was added to another different three wells each in an amount of 20 μL per well. Immediately after 100 μL each of the 0.1% dopa solution was added to the wells each containing the above-described test solution, absorbances at 450 nm were measured using a plate reader and were defined as 0-minute values. The 96-well plate was incubated at 37° C. for 10 minutes in the plate reader, and the absorbances at 450 nm were measured again and defined as 10-minute values. A value calculated by subtracting the 0-minute value from the 10-minute value of each well was defined as a 0→10 minute absorbance change value, and the average of 0→10 minute absorbance change value of control was defined as 100%, followed by measurement of dopa-oxidizing activities in the cases of treatments with various concentrations of test substances.

Trp-2 = assay: Expression of Trp-2 by Western blotting; format: cell-based; conditions: 5 μM, 72-hour culture, human normal melanocytes
Protocol: as §1, §2

human normal melanocytes = assay: Melanin formation inhibition test (14C-thiouracil uptake); format: cell-based; conditions: for Melanin level (%): three days culture, % of control
Protocol: The melanin formation inhibitory action of Compound (1) was evaluated using thiouracil (in this test, thiouracil labeled with ^14C was used), which is specifically taken into cells in a melanin synthesis process. A complete medium for culturing melanocytes (from Kurabo Industries Ltd.) was added to 15 wells of a 24-well plate in an amount of 2 ml per well, and human normal melanocytes (from Kurabo Industries Ltd.) were inoculated into each well at a concentration of 1.5×10^4 cells/cm^2. The cells were cultured at 37° C. for 24 hours under 5% carbon dioxide atmosphere. Thereafter, in all the wells, the medium was exchanged under the following conditions. That is, a fresh complete medium for culturing melanocytes was added to three wells (control), complete mediums for culturing melanocytes containing Compound (1) at concentrations of 1.0×10^−3 mM, 2.0×10^−3 mM, and 4.0×10^−3 mM were added to three wells each (total: nine wells), and a complete medium for culturing melanocytes containing 0.1 mM phenylthiourea, which is known as a tyrosinase inhibitor, was added to other three wells. In addition, to those 15 wells was added ^14C-thiouracil (thiouracil labeled with ^14C) was added at 0.25×10^−6 Ci (curie). The cells were cultured under the same conditions as above for further three days. After completion of the culture, the culture solution was removed from the wells, and the cells were washed with PBS (phosphate buffered saline) and detached with a medium containing trypsin and EDTA from the bottom of each well to produce cell suspensions, followed by centrifugation to collect the cells. The numbers of the cells were counted using a blood cell counting chamber. Thereafter, the ^14C-thiouracil level in the cells collected from each well was determined using a liquid scintillation counter. The percentage of a radiation dose of the cells cultured in each medium containing a test substance based on a radiation dose of the cells collected from the control wells was calculated to determine a melanin level (%). That is, it is considered that the smaller the radiation dose taken in the cells is, the smaller the melanin level is, resulting in a large melanin inhibition titer.

Compound | expression level of Trp-1 (Trp-1) | expression level of tyrosinase (tyrosinase) | Dopa-oxidizing activity ([1]; 1 μM added substance) | Dopa-oxidizing activity ([1]; 10 μM added substance) | Dopa-oxidizing activity ([1]; 100 μM added substance) | action on the activity of tyrosinase [1] | expression level of Trp-2 (Trp-2) | melanin formation inhibitory action (human normal melanocytes; 1.0-4.0 × 10^−3 mM) | Melanin level (%) (human normal melanocytes; 1.0 × 10^−3 mM in medium) | Melanin level (%) (human normal melanocytes; 2.0 × 10^−3 mM in medium) | Melanin level (%) (human normal melanocytes; 4.0 × 10^−3 mM in medium) | melanin formation inhibition titer relative to phenylthiourea (positive control) (human normal melanocytes; Compound (1) 4.0×10^−3 mM versus phenylthiourea 0.1 mM) | inhibition of melanin formation (human normal melanocytes; cultured cell system of Test Example 1, concentration 25-fold lower than 100 μM) | Melanin level (%) (human normal melanocytes; 0.1 mM in medium)
CC(C)(C)c1cc(C(=O)c2cccs2)cc(C(C)(C)C)c1O [Compound (1), 2,6-di-tert-butyl-4-(2′-thenoyl)phenol] | did not affect | did not affect | 103.55 ± 1.34% | 102.52 ± 3.68% | 102.52 ± 2.19% | did not inhibit the activity of tyrosinase | did not affect | concentration-dependent melanin formation inhibitory action | 48.5 ± 2.3% | 27.9 ± 0.8% | 17.0 ± 0.8% | ≥ 20 times | ≥ 80% | 
NC(=S)Nc1ccccc1 [Phenylthiourea, phenylthiourea, reference compound] |  |  | 64.07 ± 1.53% | 22.52 ± 1.09% | 4.73 ± 2.07% | had an action of inhibiting the activity of tyrosinase |  |  |  |  |  |  |  | 20.3 ± 3.8%
